This note sets out measurements from patent US20030064380A1, “Anergy-regulated molecules” (The Center For Blood Research, Inc., priority 2001, published 2003).

Common to all, as to format: cell-based, murine
The test system of one experiment is D5 cells. Kind of experiment: transcription of inducible genes in ionomycin-treated D5 cells on second stimulation (RNase protection). The note with it: second stimulation with anti-CD3/anti-CD28 or antigen/APC. How it is done: Total cellular RNA was purified from resting cells or cells stimulated with APC and antigen or anti-CD3 plus anti-CD28 for 4 h, using Ultraspec reagent (Biotecx) and analyzed using the RiboQuant multiprobe RNase protection kit and specific multi-set probes (Pharmingen) according to the manufacturer's instructions. Jurkat cells were transfected by electroporation in serum-free medium with pulses of 250 V and 960 μF with […] of pEGFPN1 (Clontech) or pNLS-NFAT1 (ST2+5+8) (Okamura et al., (2000) Mol. Cell. 6: 539-550). RNA from transiently transfected Jurkat cells was obtained after selecting transfected cells for expression of a cotransfected murine CD4 plasmid using magnetic beads (Dynal).
(§1) The murine antigen-specific Th1 clone D5 was used to set up the model of clonal anergy developed by Schwartz and coworkers (Schwartz, (1996) J. Exp. Med. 184: 1-8).

In another experiment the test system is caspase-3. Kind of experiment: Western blotting of ionomycin-treated T cells. How it is done: Total cellular extracts were prepared by boiling cell pellets directly in SDS containing loading buffer to prevent proteolysis during cell lysis. Antibodies against caspase-3 (Santa Cruz) and active caspase-3 (Cell Signaling) were used. The polyclonal antibody 67.1 against NFAT1 has been described (Okamura et al., (2000) Mol. Cell. 6: 539-550).
Of particular interest was the fact that several of the ionomycin-induced genes encoded proteins involved (or potentially involved) in protein degradation. Candidate genes in this category included caspase-3, SOCS-2 and Traf5 (FIG. 6B). Caspase-3 is an enzyme for which commercial reagents are readily available. Tests were conducted to determine whether caspase-3 was activated and functional in ionomycin-pretreated T cells. […] Further work will be necessary to establish whether proteolysis occurs in specific intracellular compartments relevant to TCR signal transduction or whether other signaling proteins are substrates for proteolysis in anergic cells.
(Immunoblotting shows a protein as a band on a membrane.)

Another experiment has as its system D5 T cells. Kind of experiment: proliferation assay (3H-thymidine) of D5 T cells after ionomycin pretreatment. How it is done:
D5 or primary T cells were stimulated with APC and antigen and pulsed for 24 hours with 10 μCi/ml ^3H-thymidine. DNA was collected using a cell harvester and the amount of radioactivity incorporated was measured in a β-counter.
as §1

As to `C[C@H](CCC(=O)O)C[C@H](C)C[C@H](C)C(=O)/C=C(\O)[C@H](C)C[C@H](C)C/C=C/[C@@H](C)[C@@H](O)[C@@H](C)[C@@H](O)C[C@@H]1CC[C@@](C)([C@H]2CC[C@@](C)([C@@H](C)O)O2)O1` [Ionomycin, ionomycin], the “transcription of inducible genes including IL-2, IFN-γ, TNF-α, GM-CSF and MIP-1α” value with D5 cells is “markedly decreased”. Besides, the “caspase-3 protein (procaspase 3, p20 and active p17 forms)” value with caspase-3 (ionomycin-treated T cells, 6 h to 16-18 h) is “induced at the protein level and activated”. Further, in the experiment with caspase-3 (treated D5 cells, Western blots), the “cleavage of Vav-1, Gads and PKC-theta” value is “minor cleavage”. For the same molecule, in the experiment with D5 T cells, the “subsequent proliferative response to antigen or anti-CD3” value is reported as “greatly diminished”.
